Values quoted from earlier work, collected in US6284909A, “Preparations of thiophosphites and thiophosphonates” (University of Southern California, priority 2000, dated 2001).
Where two headings read alike, the source gives them in different places.

Tests used:
[1] = clinical trials
[2] = clinical trials; remark: listed apart in the source
[3] = system: HIV-1
[4] = system: HIV reverse transcriptase
[5] = system: HIV
[6] = system: CMV; details: in culture
[7] = system: HIV; details: U.S. Pat. Nos. 5,072,032 and 5,183,812
[8] = system: H9 cells; details: at effective antiviral doses
[9] = system: human DNA polymerases
[10] = system: Herpesvirus DNA polymerases
[11] = system: DNA polymerase of Cytomegalovirus (CMV)

Row | SMILES | characterization of nephrotoxicity: serum creatinine [1] | characterization of nephrotoxicity: tubulopathy [1] | nephrotoxicity [1] | oral bioavailability [2] | inhibition of HIV-1 [3] | selectivity of inhibition of isolated HIV RT ([4]; in vitro, vs human DNA polymerases) | IC50 ([4]; isolated HIV RT, in vitro, Thiovir, read-out: IC50) [nM] | antiviral activity against HIV compared to DNA polymerase inhibiting activity [5] | antiviral activity against CMV-infected cells [6] | effectiveness against HIV, the AIDS virus [7] | toxicity to cultured H9 cells [8] | IC50 ([4]; trisodium phosphonoformate, known, read-out: IC50 (HIV reverse transcriptase)) [nM] | inhibition of human DNA polymerases, compared with Thiovir [9] | inhibition of several Herpesvirus DNA polymerases [10] | inhibition of the DNA polymerase of Cytomegalovirus (CMV) [11]
1 | O=C(O)P(=O)(O)O [PFA, phosphonoformic acid] | increased serum creatinine | acute toxic tubolopathy | reversible nephrotoxity | poor | shown to inhibit HIV-1 | – | – | – | – | – | – | – | – | – | –
2 | O=C(O)P(O)(O)=S [Thiovir®, trisodium thiophosphonoformate] | – | – | – | – | – | selectively inhibited | ~1000 | unexpectedly high antiviral activity against HIV | exhibited antiviral activity against CMV-infected cells | effective against HIV | non-toxic | – | – | – | –
3 | O=C(O)P(=O)(O)O [foscarnet, Trisodium phosphonoformate] | – | – | – | – | – | – | – | – | – | – | non-toxic | ~1000 | more inhibitory to human DNA polymerases | inhibit several Herpesvirus DNA polymerases | inhibit
